The results in this text go back to patent publication US6403554B2, “Polyunsaturated fatty acid derivatives and their use” (Ardenia Investments Ltd., priority 1998, dated 2002).

“Also recorded” adds a separate entry of the source.

In this test the test system is antibody-forming cells (AFC) in the spleen. In words: Influence of compound on humoral immune response to sheep erythrocytes, C57B1/6 female mice (AFC in spleen, hemagglutinins). It counts as in vivo. Particulars: for Amount of antibody-forming cells per 10^6 spleen cells / Amount of antibody-forming cells per spleen / Effect on relative amount of AFC (per 10^6 spleen cells) / Effect on total AFC amount (per spleen) / Effect on hemagglutinin titers / Spleen index / Amount of hemagglutinins: i.v.; for Amount of antibody-forming cells per 10^6 spleen cells / Amount of antibody-forming cells per spleen / Effect on relative amount of AFC (per 10^6 spleen cells) / Effect on total AFC amount (per spleen): 5th day; for Amount of antibody-forming cells per 10^6 spleen cells / Amount of antibody-forming cells per spleen: M ± SEM; for Effect on relative amount of AFC (per 10^6 spleen cells) / Effect on total AFC amount (per spleen) / Effect on hemagglutinin titers: vs control; for Spleen index: with SRBC i.p.; for Amount of hemagglutinins: serum. The method, then:
The increase was calculated as compared with the amount of cells in the animals immunised only with sheep erythrocytes.
0.15 ml of compound 10 was administered intravenously to 6 mice females of CS7B1/6 line (weight 18-22 g) in doses of 45.5, 91 and 136.5 μg of compound 10 per capita for each testing group according to the dose. Simultaneously, a suspension of 5·10^7 sheep erythrocytes was injected intraperitoneally (0.2 ml per capita). Mice in the control group were injected intravenously with equal volume of saline. The effects of compound 10 on humoral immune response were analyzed both by counting the quantity of AFC in the spleen according to Cunningham (per 10^6 spleen cells and per spleen) and estimating the titers of hemagglutining antibodies in serum of the animals (Cunningham A. J., Nature, 1965, Vol.207, No 5001. P.1106-1107), while the titers of hemagglutinating antibodies were evaluated according to litterature (Evans J. et al., Cell, 1974; Vol 3., p.153-158, Feizi T., Menger E., Transfusion, 1970, Vol. 10, p.33-35,).
(§1) 0.15 ml of compound 11 was administered intravenously to 6 female mice of the C57B1/6 line (weight 18-22 g) in doses of 45.5, 91 and 136.5 μg of compound 11 per capita for each testing group according to the dose. Simultaneously, a suspension of 5·10^7 sheep erytrocytes was injected intraperitoneally (0.2 ml per capita). Mice in the control group were injected intravenously with an equal volume of saline. The effects of compound 11 on humoral immune response was analysed both by counting the quantity of AFC in the spleen according to Cunningham (per 10^6 spleen cells and per spleen) and estimating the titers of hemagglutining antibodies in serum of the animals.
as §1, with “12” for “11”, “erythrocytes” for “erytrocytes”, “analyzed” for “analysed”
as §1, with “compound 8” for “compound 11”, “sheep erythrocytes” for “sheep erytrocytes”, “Mice of” for “Mice in”, “response were analyzed” for “response was analysed”
0.15 ml of compound 3 was administered intravenously to 6 female mice of the C57B1/6 line (weight 18-22 g) in doses of 45.5, 91 and 136.5 μg of compound 3 per capita for each testing group according to the dose. Simultaneously, a suspension of 5·10^7 sheep erytrocytes was injected intraperitoneally (0.2 ml per capita). Mice of the control group were injected intravenously with equal volume of saline.

On to `CC1=C(/C=C/C(C)=C/C=C/C(C)=C\C(=O)NCCOP(=O)(O)O)C(C)(C)CCC1` [Compound 1a, N-(13cis-Retinoyl)-O-phospho-2-aminoethanol], for which, under “45.5 μg/mouse”, the Immunogenic activity entry was “no immunogenic activity”, the “Amount of antibody-forming cells per 10^6 spleen cells” value is 815.8±70.9 cells per 10^6 spleen cells, the “Amount of antibody-forming cells per spleen” value was 104.6±10.7 × 10^3 and the “Effect on relative amount of AFC (per 10^6 spleen cells)” value is reported as “+5.6 p > 0.05%”. Moreover, for the setting “45.5 μg/mouse”, the “Effect on total AFC amount (per spleen)” value is “+16.4 p > 0.05%”, the “Effect on hemagglutinin titers” value was −1,3 p > 0.05% and the Spleen index is 6.1 ± 0.2 10^−3. In addition, for the setting “91 μg/mouse”, the “immunostimulating effect in vivo in micelle form” value is “display immunostimulating effect in vivo”, the “Amount of antibody-forming cells per 10^6 spleen cells” value is listed as 997.2±43.4 cells per 10^6 spleen cells, the “Amount of antibody-forming cells per spleen” value is listed as 114.5±8.2 × 10^3 and the “Effect on hemagglutinin titers” value is −1,3 p > 0.05%. Moreover, the Spleen index (91 μg/mouse) is reported as 6.2 ± 0.2 10^−3. Under “136.5 μg/mouse”, the “Amount of antibody-forming cells per 10^6 spleen cells” value is on record as 1176.9±58.5 cells per 10^6 spleen cells, the “Amount of antibody-forming cells per spleen” value is listed as 149.4±9.4 × 10^3, the “Effect on hemagglutinin titers” value was “+6,5 p > 0.05%” and the Spleen index is recorded as 6.9 ± 0.3 10^−3. Besides, the immunostimulating action entry (91 and 136.5 μg/mouse) is “marked immunostimulating action”.
`CC/C=C\C/C=C\C/C=C\C/C=C\C/C=C\C/C=C\CCC(=O)N[C@@H](Cc1ccc(OP(=O)(O)O)cc1)C(=O)O` [Compound 12, N-(cis-4,7,10,13,16,19-docosahexaenoyl)-O-phospho-L-tyrosine]: under “45.5 μg/mouse”, the “Amount of antibody-forming cells per 10^6 spleen cells” value was 263.8±23.6 cells per 10^6 spleen cells, the “Amount of antibody-forming cells per spleen” value is on record as 31.8±2.8 × 10^3, the “Effect on relative amount of AFC (per 10^6 spleen cells)” value is reported as −9.4 p >0.05% and the “Effect on total AFC amount (per spleen)” value is recorded as −9.1 p >0.05%. Besides, where the note is “45.5 μg/mouse”, the “Effect on hemagglutinin titers” value is on record as “+2.8 p >0.05%” and the Spleen index is 6.3 ± 0.3 10^−3. Besides, where the note is “91 μg/mouse”, the “Amount of antibody-forming cells per 10^6 spleen cells” value is reported as 307.8±30.9 cells per 10^6 spleen cells, the “Amount of antibody-forming cells per spleen” value is 40.2±2.7 × 10^3, the “Effect on relative amount of AFC (per 10^6 spleen cells)” value is reported as “+5.7 p > 0.05%” and the “Effect on total AFC amount (per spleen)” value is “+14.9 p > 0.05%”. Besides, for the setting “91 μg/mouse”, the “Effect on hemagglutinin titers” value is given as “+2.8 p > 0.05%” and the Spleen index is 5.9 ± 0.3 10^−3. Further, for the setting “136.5 μg/mouse”, the immunostimulating action result is reported as “high immunostimulating action”, the “Amount of antibody-forming cells per 10^6 spleen cells” value is given as 682.6±33.3 cells per 10^6 spleen cells, the “Amount of antibody-forming cells per spleen” value is given as 69.6±6.0 × 10^3 and the “Effect on hemagglutinin titers” value is listed as “+7.7 p > 0.05%”. Besides, for the setting “136.5 μg/mouse”, the Spleen index was 6.3 ± 0.4 10^−3. Besides, the Immunogenic activity result (45.5 and 91 μg/mouse) is given as “no immunogenic activity”.
`CC/C=C\C/C=C\C/C=C\C/C=C\C/C=C\CCCC(=O)NCCOP(=O)(O)O` [Compound 13, N-(cis-5,8,11,14,17-eicosapentaenoyl)-O-phospho-2-aminoethanol]: under “45.5 μg/mouse”, the “Amount of antibody-forming cells per 10^6 spleen cells” value is 608.2±61.3 cells per 10^6 spleen cells, the “Amount of antibody-forming cells per spleen” value was 48.2±6.5 × 10^3, the “Effect on relative amount of AFC (per 10^6 spleen cells)” value was −3.2 p > 0.05% and the “Effect on total AFC amount (per spleen)” value is on record as “+5.0 p > 0.05%”. Further, where the note is “45.5 μg/mouse”, the “Effect on hemagglutinin titers” value is given as “+7,8 p > 0.05%” and the Spleen index is 5.4 ± 0.6 10^−3. In addition, where the note is “91 μg/mouse”, the “Amount of antibody-forming cells per 10^6 spleen cells” value was 525.0±97.2 cells per 10^6 spleen cells, the “Amount of antibody-forming cells per spleen” value is on record as 49.4±6.2 × 10^3, the “Effect on relative amount of AFC (per 10^6 spleen cells)” value was −16.5 p > 0.05% and the “Effect on total AFC amount (per spleen)” value is “+7.6 p > 0.65%”. Where the note is “91 μg/mouse”, the “Effect on hemagglutinin titers” value is “+5,6 p > 0.05%” and the Spleen index is recorded as 5.7 ± 0.8 10^−3. Also, for the setting “136.5 μg/mouse”, the immunostimulating action result is “high immunostimulating action; also recorded: marked immunostimulating action”, the “Amount of antibody-forming cells per 10^6 spleen cells” value is on record as 885.9±65.8 cells per 10^6 spleen cells, the “Amount of antibody-forming cells per spleen” value was 68.2±6.9 × 10^3 and the “Effect on hemagglutinin titers” value is “+14,4 p > 0.05%”. Further, the Spleen index (136.5 μg/mouse) is recorded as 5.3 ± 0.4 10^−3. Moreover, the Immunogenic activity result (45.5 and 91 μg/mouse) is listed as “no immunogenic activity”.
`CC/C=C\C/C=C\C/C=C\CCCCCCCC(=O)N[C@H](C(=O)O)[C@@H](C)OP(=O)(O)O` [Compound 19, N-(cis-9,12,15-octadecatrienoyl)-O-phospho-L-threonine]: where the note is “45.5 μg/mouse”, the “Amount of antibody-forming cells per 10^6 spleen cells” value is on record as 454.7±57.9 cells per 10^6 spleen cells, the “Amount of antibody-forming cells per spleen” value was 48.8±6.4 × 10^3, the “Effect on relative amount of AFC (per 10^6 spleen cells)” value is on record as “+4.3 p > 0.05%” and the “Effect on total AFC amount (per spleen)” value is listed as “+5.4 p > 0.05%”. For the setting “45.5 μg/mouse”, the “Effect on hemagglutinin titers” value is reported as “+1,3 p > 005%” and the Spleen index was 6.2 ± 10^−3. Also, where the note is “91 μg/mouse”, the “Amount of antibody-forming cells per 10^6 spleen cells” value was 473.2±44.5 cells per 10^6 spleen cells, the “Amount of antibody-forming cells per spleen” value is 51.2±6.1 × 10^3, the “Effect on relative amount of AFC (per 10^6 spleen cells)” value is reported as “+8.6 p > 0.05%” and the “Effect on total AFC amount (per spleen)” value was “+10.6 p > 0.05%”. Moreover, under “91 μg/mouse”, the “Effect on hemagglutinin titers” value is “+3.8 p > 0.05%” and the Spleen index is 6.4 ± 10^−3. Moreover, under “136.5 μg/mouse”, the immunostimulating action result is “marked immunostimulating action”, the “Amount of antibody-forming cells per 10^6 spleen cells” value was 612.5±47.3 cells per 10^6 spleen cells, the “Amount of antibody-forming cells per spleen” value is recorded as 64.7±4.9 × 10^3 and the “Effect on hemagglutinin titers” value is on record as “+6.3 p > 0.05%”. Also, the Spleen index (136.5 μg/mouse) is 6.5 ± 10^−3. Under “45.5 and 91 μg/mouse”, the Immunogenic activity entry was “no immunogenic activity”.
Take `CC/C=C\C/C=C\C/C=C\CCCCCCCC(=O)NCCOP(=O)(O)O` [Compound 17, N-(cis-9,12,15-octadecatrienoyl)-O-phospho-2-aminoethanol]: under “45.5 μg/mouse”, the “Amount of antibody-forming cells per 10^6 spleen cells” value was 457.3±40.7 cells per 10^6 spleen cells, the “Amount of antibody-forming cells per spleen” value was 51.1±4.4 × 10^3, the “Effect on relative amount of AFC (per 10^6 spleen cells)” value was −3.0 p > 0.05% and the “Effect on total AFC amount (per spleen)” value was −7.4 p > 0.05%. Also, under “45.5 μg/mouse”, the Amount of hemagglutinins is listed as 7.6 ± 0.2 Log2 T and the Spleen index is 5.8 ± 10^−3. Where the note is “91 μg/mouse”, the “Amount of antibody-forming cells per 10^6 spleen cells” value is reported as 523.8±45.3 cells per 10^6 spleen cells, the “Amount of antibody-forming cells per spleen” value is given as 63.5±5.1 × 10^3, the “Effect on relative amount of AFC (per 10^6 spleen cells)” value was “+11.1 p > 0.05%” and the “Effect on total AFC amount (per spleen)” value was “+15.0 p > 0.05%”. Further, under “91 μg/mouse”, the Amount of hemagglutinins worked out at 7.8 ± 0.3 Log2 T, the “Effect on hemagglutinin titers” value was “+2.6 p > 0.05%” and the Spleen index is on record as 5.7 ± 10^−3. For the setting “136.5 μg/mouse”, the immunostimulating action entry is listed as “marked immunostimulating action”, the “Amount of antibody-forming cells per 10^6 spleen cells” value was 619.6±38.9 cells per 10^6 spleen cells, the “Amount of antibody-forming cells per spleen” value was 71.6±4.7 × 10^3 and the Amount of hemagglutinins was found to be 7.8 ± 0.4 Log2 T. Besides, under “136.5 μg/mouse”, the “Effect on hemagglutinin titers” value is listed as “+2.6 p > 0.05%” and the Spleen index is reported as 5.9 ± 10^−3. In addition, the Immunogenic activity result (45.5 and 91 μg/mouse) is “no immunogenic activity”.
